Data set [1] has as its system Magnaporthe grisea (Pyricularia oryzae—PYRIOR). Kind of data set: microbe, parasite or virus in culture. Format: cell-based. The conditions noted are these: Pyricularia oryzae, read-out: PYRIOR in vitro Growth Inhibition.
The test system of data set [2] is Rhizoctonia solani (RHIZSO). Put plainly: microbe, parasite or virus in culture. The data set is classed as cell-based. The conditions noted are these: Rhizoctonia solani, read-out: RHIZSO in vitro Growth Inhibition.
Data set [3] concerns Mycosphaerella graminicola (Septoria tritici—SEPTTR). Put plainly: In vitro fungal growth inhibition, Mycosphaerella graminicola (SEPTTR). Format: cell-based. The settings on record: Zymoseptoria tritici, read-out: SEPTTR in vitro Growth Inhibition.
For data set [4], the system named is Stagonospora nodorum (Leptosphaeria nodorum—LEPTNO). Put plainly: In vitro fungal growth inhibition, Stagonospora nodorum (LEPTNO). Format: cell-based. The conditions noted are these: Leptosphaeria, read-out: LEPTNO in vitro Growth Inhibition.
A further data set relates to Ustilago maydis (USTIMA). Kind of data set: microbe, parasite or virus in culture. The data set is classed as cell-based. The conditions noted are these: Mycosarcoma maydis, read-out: USTIMA in vitro Growth Inhibition.
Data set [5] has as its system Phytophthora infestans (PHYTIN). Put plainly: microbe, parasite or virus in culture. The data set is classed as cell-based. The settings on record: Phytophthora infestans, read-out: PHYTIN in vitro Growth Inhibition.
The test system of data set [6] is Phytophthora infestans—PHYTIN. Kind of data set: whole plant or invertebrate. The conditions noted are these: Phytophthora, in Solanum lycopersicum, 24 h, read-out: PHYTIN in vivo 1 Day Protectant. Format: in vivo.
In data set [7] the test system is Puccinia recondita—PUCCRT. Put plainly: Brown Rust of Wheat, in vivo whole plant, 24 Hour Protectant. The conditions noted are these: Puccinia, control of fungal infection vs untreated plants, read-out: PUCCRT in vivo 1 Day Protectant.
The subject of a further data set is Erysiphe graminis—ERYSGT. Kind of data set: Powdery Mildew of Wheat, in vivo whole plant, 24 Hour Protectant. The conditions noted are these: Erysiphe, control of fungal infection vs untreated plants, read-out: ERYSGT in vivo 1 Day Protectant.
In the next data set the test system is Septoria tritici—SEPTTR. Put plainly: Leaf Blotch of Wheat, in vivo whole plant, 24 Hour Protectant. The conditions noted are these: Zymoseptoria tritici, 24 h, control of fungal infection vs untreated plants, read-out: SEPTTR in vivo 1 Day Protectant.
The test system of data set [8] is Leptosphaeria nodorum—LEPTNO. Put plainly: Glume Blotch of Wheat, in vivo whole plant, 24 Hour Protectant. The settings on record: control of fungal infection vs untreated plants; for pest or weed control at 100 ppm: Leptosphaeria, read-out: LEPTNO in vivo 1 Day Protectant.
Setting [9] is: wheat plants sprayed at 100 ppm, inoculated after 24 hours.
The mark [10] stands for this setting: 100 ppm spray, 24 hour protectant, wheat.
The mark [11] stands for this setting: 100 ppm spray, wheat, 24 hour protectant.

Molecules are shown by their SMILES. Read-outs that look alike come from different tables or passages of the source.

`O=C(Nc1ccc(Oc2ccccc2)cc1)c1cccnc1O` [Compound 522]: the melting point lay in the range of 223 to 224 °C. In addition, in data set [1], the inhibition at 25 ppm is less than 80%. Also, the inhibition at 25 ppm in [2] was less than 80%. Moreover, the inhibition at 25 ppm in [3] (25 ppm in the growth medium) is less than 80%. Moreover, the inhibition at 25 ppm in [4] (25 ppm in the growth medium) was less than 80%. Moreover, in the data set with Ustilago maydis (USTIMA), the inhibition at 25 ppm is less than 80%. For the same molecule, in data set [5], the inhibition at 25 ppm was less than 80%. Also, in data set [6], the pest or weed control at 100 ppm was less than 25%. Further, the pest or weed control at 100 ppm in data set [7] (setting [9]) was less than 25%. Besides, the pest or weed control at 100 ppm in the data set on Erysiphe graminis—ERYSGT (setting [9]) is less than 25%. For the same molecule, the pest or weed control at 100 ppm with Septoria tritici—SEPTTR (setting [9]) was less than 25%. In data set [8] (setting [9]), the “LEPTNO in vivo 1 Day Protectant” value is given as “+ +”.
With `O=C(NCc1ccc(Cl)c(Cl)c1)c1ncccc1O` [Compound 221], the melting point lay within 100 to 101 °C. For the same molecule, the inhibition at 25 ppm in data set [1] was greater than 80%. Also, the inhibition at 25 ppm in [2] is less than 80%. The inhibition at 25 ppm in [3] (25 ppm in growth medium) was greater than 80%. The inhibition at 25 ppm in [4] (25 ppm in growth medium) was less than 80%. In the data set with Ustilago maydis (USTIMA), the inhibition at 25 ppm is less than 80%. In addition, in data set [5], the inhibition at 25 ppm was greater than 80%. The pest or weed control at 100 ppm in data set [6] is less than 25%. In data set [7] (setting [10]), the pest or weed control at 100 ppm is less than 25%. Also, in the data set on Erysiphe graminis—ERYSGT (setting [10]), the pest or weed control at 100 ppm was less than 25%. In addition, the pest or weed control at 100 ppm with Septoria tritici—SEPTTR (setting [10]) was less than 25%. In [8] (setting [10]), the pest or weed control at 100 ppm is less than 25%.
In turn, `C=C1COC(=O)[C@@H](NC(=O)c2nccc(OC)c2OC(C)=O)COC(=O)C1` [Compound 595] had a melting point of 163 to 164 °C. Moreover, in data set [1], the inhibition at 25 ppm is less than 80%. Moreover, the inhibition at 25 ppm in [2] is less than 80%. Moreover, in data set [3] (25 ppm in the growth medium), the inhibition at 25 ppm was less than 80%. Further, the inhibition at 25 ppm in data set [4] (25 ppm in the growth medium) was less than 80%. Further, the inhibition at 25 ppm in the data set with Ustilago maydis (USTIMA) was less than 80%. In addition, in data set [5], the inhibition at 25 ppm was less than 80%. The pest or weed control at 100 ppm in data set [6] was less than 25%. Moreover, the pest or weed control at 100 ppm in data set [7] (setting [9]) was less than 25%. Moreover, the pest or weed control at 100 ppm in the data set on Erysiphe graminis—ERYSGT (setting [9]) is less than 25%. In the data set on Septoria tritici—SEPTTR (setting [9]), the pest or weed control at 100 ppm is less than 25%. Besides, the pest or weed control at 100 ppm in [8] (setting [9]) fell in the range of 25 to 74%.
For `COc1ccnc(C(=O)Nc2ccc(C(=O)Oc3cccc(C(F)(F)F)c3)cc2)c1O` [Compound 451], the melting point was 196 °C (dec.). The inhibition at 25 ppm in [1] is greater than 80%. Besides, the inhibition at 25 ppm in data set [2] was less than 80%. Also, the inhibition at 25 ppm in [3] (25 ppm in growth medium) was less than 80%. Besides, the inhibition at 25 ppm in data set [4] (25 ppm in growth medium) was less than 80%. Further, in the data set with Ustilago maydis (USTIMA), the inhibition at 25 ppm is less than 80%. Further, the inhibition at 25 ppm in data set [5] was less than 80%. In data set [6], the pest or weed control at 100 ppm was less than 25%. In data set [7] (setting [11]), the pest or weed control at 100 ppm lay within 25 to 74%. Besides, the pest or weed control at 100 ppm with Erysiphe graminis—ERYSGT (setting [11]) is less than 25%. Moreover, the pest or weed control at 100 ppm in the data set on Septoria tritici—SEPTTR (setting [11]) is less than 25%. For the same molecule, in data set [8] (setting [11]), the pest or weed control at 100 ppm fell in the range of 25 to 74%.
`COc1ccnc(C(=O)NC2c3ccccc3CC2(C)C)c1O` (stereo not drawn) [Compound 284]: the melting point is 122 to 128 °C. For the same molecule, the inhibition at 25 ppm in data set [1] was less than 80%. In addition, the inhibition at 25 ppm in [2] is less than 80%. Besides, the inhibition at 25 ppm in data set [3] (25 ppm in growth medium) was less than 80%. In data set [4] (25 ppm in growth medium), the inhibition at 25 ppm was less than 80%. Further, the inhibition at 25 ppm in the data set on Ustilago maydis (USTIMA) is less than 80%. Also, the inhibition at 25 ppm in [5] was less than 80%. The pest or weed control at 100 ppm in data set [6] was less than 25%. The pest or weed control at 100 ppm in data set [7] (setting [10]) was in the range of 25 to 74%. Also, in the data set on Erysiphe graminis—ERYSGT (setting [10]), the pest or weed control at 100 ppm was less than 25%. Besides, the pest or weed control at 100 ppm in the data set on Septoria tritici—SEPTTR (setting [10]) was 25 to 74%. The pest or weed control at 100 ppm in data set [8] (setting [10]) fell in the range of 25 to 74%.

A word on the inhibition: it is the percentage by which the read-out fell short of the control. The melting point is the temperature, or range, at which the solid turns liquid.

(Values after patent publication US6706740B2, “Fungicidal heterocyclic aromatic amides and their compositions, methods of use and preparation” (Dow AgroSciences LLC, priority 1999, dated 2004).)
